# Source: PubChem BioAssay AID179 (DTP/NCI, 2004)
# Calls of active or inactive are those of the source.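 Rule for the calls: active = compounds giving half or more protection of infected cells from virus-caused growth loss, again on retest; inactive = the rest.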
# Test system: CEM cells HIV-1 protection, formazan growth assay
# Assay: NCI AIDS Antiviral Assay
# Settings: for IC50: measured here: growth of uninfected CEM cells
# Summary of the method: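 Screen of anti-HIV-1 activity in human CEM cells using a formazan-based growth measurement at five drug concentrations. Hits with 50% or greater protection were repeated, and confirmation required reproducible complete protection.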
SMILES,EC50,IC50,outcome
CCOc1ccc(C2=NN(CC)C(=O)C(C3C(=O)N(c4ccccc4)N=C3C)C2)cc1 (centres undefined),> 120 µM,> 120 µM,–
CC(C)OCC(O)COc1cc(=O)oc2ccccc12 (centres undefined),> 200 µM,> 200 µM,–
CCOC(=O)c1nc2c(Cl)c3ncccc3cc2[nH]c1=O,> 200 µM,12 µM,–
O=[N+]([O-])c1cc(Cl)ccc1S(=O)(=O)N1CCCc2cc(Cl)ccc21,> 200 µM,30.2 µM,–
CC1=C[C@H]2c3c([nH]c4ccccc34)C(c3c[nH]c4ccccc34)[C@H]2CC1 (some centres undefined),–,–,inactive
C=C(C)CC1=C(OCC)C(OC)(OCC)C1=O (centres undefined),> 200 µM,> 200 µM,–
CSc1nc(NC2OCC(O)C(O)C2O)c(N)c(=O)[nH]1 (centres undefined),–,–,inactive
OC1c2ccccc2C2C(O)c3ccccc3C12 (centres undefined),–,–,inactive
CN(C)c1ccc(/C=C(\NC(=O)c2ccccc2)C(=O)Nc2ccccc2C(=O)NCc2ccccc2)cc1,> 151 µM,70.8 µM,–
S=c1n(-c2ccc(Cl)cc2)c2nc3ccccc3nc(/c2=N\Nc2ccc(Br)cc2)n1-c1ccccn1,> 32.4 µM,30.9 µM,–
CCOC(=O)c1c2nc3ccccc3sc-2c(C(=O)OCC)c1C(=O)OCC,> 20 µM,0.977 µM,–
O=C(N/C(=C\c1ccccc1O)c1nc2ccccc2[nH]1)c1ccccc1,> 51.3 µM,> 51.3 µM,–
CCCC(=O)N1CCN(c2ccc3c(c2)OC(C)O3)CC1 (centres undefined),> 200 µM,> 200 µM,–
O=c1[nH][nH]c(=O)c2nc(Nc3ccco3)ncc12,> 240 µM,> 240 µM,–
CN1NC(c2ccccc2)=C(C#N)C(=O)CC1c1ccccc1 (centres undefined),> 200 µM,93.3 µM,–
Cc1cc2occ(/C=C\C3=C(C#N)C(=O)OC(C)(C)C3)c(=O)c2cc1C,> 7.76 µM,> 7.76 µM,–
O=C(c1ccccn1)c1nc(-c2ccc(Cl)c(Cl)c2)nc2ccc(Cl)cc12,–,–,inactive
CCOC(=O)c1ccc(N2N=NC3C4CC(C5CCCC54)C32)cc1 (centres undefined),> 200 µM,> 200 µM,–
O=C(O)c1cc(O)c(Br)c(O)c1N=Nc1ccc(/C=C/c2ccc(N=Nc3c(C(=O)O)cc(O)c(Br)c3O)cc2S(=O)(=O)O)c(S(=O)(=O)O)c1,166 µM,> 200 µM,–
C=C1C(=O)c2cc3c(cc2C(c2cc(OC)c(OC)c(OC)c2)[C@@H]1C(=O)O)OCO3 (some centres undefined),–,–,inactive
NC(=S)N/N=C1\CCCCC1C(O)(C(F)(F)Cl)C(F)(F)Cl (centres undefined),> 200 µM,> 200 µM,–
O=C(c1ccc(Cl)cc1)N(C(=S)OCc1ccccn1)c1ccccc1,> 200 µM,83.2 µM,–
O=C(Nc1ccc(F)cc1)Nc1ccc(Nc2ccccc2)cc1,> 200 µM,> 200 µM,–

SMILES,EC50,IC50,outcome
COc1cc(CNc2cnc3cc(N)ccc3n2)cc(OC)c1OC,> 200 µM,6.46 µM,–
O=C1C=Cc2c(Cl)sc(Cl)c21,> 200 µM,0.794 µM,–
CC(C)(NO)/C(=N\O)c1ccccc1,> 200 µM,> 200 µM,–
Nc1ncnc2c1ncn2C1OC(CSC(F)F)C(O)C1O (centres undefined),> 759 µM,219 µM,–
CCc1cccc(C(C)C)c1NC(=O)C(=O)CC(=O)c1c(C)n([O-])c2ccccc2[n+]1=O,> 3.31 µM,> 3.31 µM,–
COc1c(Cl)cc(S(=O)O)cc1Cl,–,–,inactive
Cc1nc2c(-c3ccccc3)[nH]c(C)c2c(=O)o1,> 200 µM,69.2 µM,–
O=C(CC1Sc2ccccc2NC1=O)Nc1ccc(Cl)cc1 (centres undefined),> 107 µM,> 107 µM,–
COC1OC(OCCC#N)C(OCCC#N)C(OCCC#N)C1OCCC#N (centres undefined),> 200 µM,> 200 µM,–
O=[N+]([O-])c1ccc(O)c(/C=N/NC(=S)N2CCCCC2)c1,> 200 µM,2.95 µM,–
COC(=O)C1=C(O)C(C(=O)OC)C2CC(=O)CC1C2(C)C (centres undefined),> 200 µM,> 200 µM,–
O=C1c2ccccc2C(=O)c2cc(N=Nc3c(O)ccc4ccccc34)ccc21,> 100 µM,> 100 µM,–
CCOP(=O)(OCC)C1C(=O)OC2(C)CCC1C2(C)C (centres undefined),–,–,inactive
COc1ccc(-c2cc(O)c3nc4ccccc4n3c2)cc1,> 200 µM,> 200 µM,–
CC(=O)c1cccc(NC(=O)Nc2ncccc2C)c1,182 µM,> 200 µM,–
COc1ccc2c(c1OC)CC1COCC21 (centres undefined),> 200 µM,> 200 µM,–
Cc1cn(C2CC(N=[N+]=[N-])C(COC(=O)[C@@]3(O)CCC4C5CCC6=CC(=O)C=C[C@]6(C)C5[C@@H](O)C[C@@]43C)O2)c(=O)[nH]c1=O (some centres undefined),1.15 µM,22.9 µM,–
CCOC(=O)c1ccccc1-c1c2cc(Br)c(=O)c(Br)c-2oc2c(Br)c(O)c(Br)cc12,> 200 µM,12 µM,–
CC(=O)On1c(-c2ccccc2-c2nc3ccccc3n2OC(C)=O)nc2ccccc21,> 200 µM,77.6 µM,–
Nc1ccc(C(=O)N/C(=C\c2cccc([N+](=O)[O-])c2)c2nc3ccccc3[nH]2)cc1,–,–,inactive
O=C1C=C(c2ccccc2)Sc2ccccc2N1,> 89.1 µM,47.9 µM,–
COC(=O)C1=C(C(=O)OC)C2(C)CCC(=O)C1O2 (centres undefined),> 200 µM,> 200 µM,–
CCOC(=O)Cc1ccc(Nc2nc3ccccc3nc2C(=O)OCC)cc1,91.2 µM,> 200 µM,–

SMILES,EC50,IC50,outcome
O=C(CCN1CCN(c2cccc(Cl)c2)CC1)N1CCc2c([nH]c3ccccc23)C1c1cccnc1 (centres undefined),> 10.5 µM,> 10.5 µM,–
CCOC(=O)C1=C(C(=O)OCC)C2(c3ccccc3)N(O1)c1ccccc1C2(C)C (centres undefined),–,–,inactive
O=C(O)c1cc2c(cc1CC(Cc1ccccc1)C(=O)O)CCC2 (centres undefined),–,–,inactive
CCCCN(CCCC)c1cc(=O)nc2ccccn12,> 200 µM,> 200 µM,–
CON(C)c1nc(Cl)nc(Cl)n1,> 200 µM,> 200 µM,–
O=c1ccn(C2CC(F)C(CO)S2)c(=O)[nH]1 (centres undefined),> 25.1 µM,> 25.1 µM,–
C#CCN(CC#C)C(=O)C(=O)c1c[nH]c2ccc(OC)cc12,> 200 µM,40.7 µM,–
CN(C)CCNc1c([N+](=O)[O-])sc2ccc(Cl)cc12,> 200 µM,16.6 µM,–
C=CC[C@@]12CC(C=CC13OCCO3)OC(=O)[C@@H]2C,> 200 µM,> 200 µM,–
S=C1N(/N=C/c2c3ccccc3cc3ccccc23)C(=Nc2ccccc2)C(=Nc2ccccc2)N1c1ccccc1,> 200 µM,> 200 µM,–
OCC(O)C(O)C(O)c1nn(-c2ccc(Cl)cc2)c2nc3cc(Cl)c(Cl)cc3nc12 (centres undefined),–,–,inactive
CN(C)C=C1C(Cl)=C(C=O)CC(C=O)=C1Cl,–,–,inactive
CCCC(=O)Nc1cc(/C=C/C(=O)N2CC(CCl)c3c2cc([N+](=O)[O-])c2ccccc32)n(C)c1 (centres undefined),> 2 µM,0.794 µM,–
CN(C)c1ccc(/C=C(\C#N)c2ccc(Br)cc2)cc1,> 100 µM,1.35 µM,–
CC(C1=C(CCN(C)C)Cc2ccccc21)c1ccccn1 (centres undefined),> 200 µM,155 µM,–
CCOC(=O)C(CC#N)(NC(C)=O)C(=O)OCC,> 200 µM,> 200 µM,–
NCCN(CCN)/[N+]([O-])=N/O,> 200 µM,> 200 µM,–
O=C(Oc1ccccc1)N(CCO)C(c1ccccc1)C(O)c1ccccc1 (centres undefined),> 200 µM,5.25 µM,–
Fc1ccccc1C1SCc2nc3ncccc3n21 (centres undefined),> 95.5 µM,> 95.5 µM,–
COC(=O)[C@H](Cc1c[nH]c2ccccc12)NP(=O)(O)OC[C@H]1O[C@@H](n2cc(C)c(=O)[nH]c2=O)C[C@@H]1N=[N+]=[N-],28.2 µM,> 200 µM,–
Cc1cc(C)nc(NS(=O)(=O)c2ccc(NC(=O)c3ccc4nc5ccccc5c(Nc5ccc(S(N)(=O)=O)cc5)c4c3)cc2)n1,> 200 µM,39.8 µM,–
Cc1ccc(S(=O)(=O)Nc2ccccc2SSc2ccccc2NS(=O)(=O)c2ccc(C)cc2)cc1,> 200 µM,4.57 µM,–
C=C1C(=O)C[C@@]23CCC[C@@]12CC(OCOC)C3 (some centres undefined),–,–,inactive

SMILES,EC50,IC50,outcome
O=Cc1ccccc1OCCCC[P+](c1ccccc1)(c1ccccc1)c1ccccc1,> 200 µM,2.82 µM,–
O=CC1(c2ccccc2)NC(=O)NC1=O (centres undefined),> 200 µM,> 200 µM,–
COC(=O)c1ccc(CCC2=CC(=O)C=CC2=O)cc1,> 200 µM,7.59 µM,–
COC(=O)C(N)CSSCC(N)C(=O)OC (centres undefined),> 324 µM,123 µM,–
Cc1cc(S(=O)(=O)Nc2nc3cc(-c4ccc(Cl)cc4)sc3c(=O)n2N)c(S)cc1Cl,> 200 µM,110 µM,–
Cc1nnc(N=Nc2c(O)[nH]c3ccccc23)n1N,> 70.8 µM,58.9 µM,–
CC(=O)OCc1cc(OC(C)=O)cnc1COC(C)=O,> 468 µM,> 468 µM,–
Cc1nc(SCC(=O)Nc2ccc(Cl)cc2)c2sc(=S)n(-c3ccccc3)c2n1,> 200 µM,> 200 µM,–
N#CCCN(CCC#N)Cc1c(O)c(O)c(CN(CCC#N)CCC#N)c2ccccc12,115 µM,126 µM,–
O=C1/C(=C/c2ccc(F)cc2)Cc2ccccc21,> 30.2 µM,> 30.2 µM,–
OC1COC(n2c3ccc(Br)cc3c3ccc4c5ccccc5[nH]c4c32)C(O)C1O (centres undefined),> 112 µM,–,–
COc1ccc(OC(C)=O)c2c1CCC=CC2=O,–,–,inactive
O=C(O)C(O)(c1ccccc1)c1ccsc1 (centres undefined),> 200 µM,> 200 µM,–
CCCCCNc1nonc1N,> 200 µM,> 200 µM,–
COC(=O)Cc1cc(=O)oc2c1C(=O)CCC2,–,–,inactive
COC1/C=C/OC2(C)Oc3c(C)c(O)c4c(O)c(c(C=NOC(c5ccccc5)c5ccccc5)c(O)c4c3C2=O)NC(=O)/C(C)=C/C=C/C(C)C(O)C(C)C(O)C(C)C(OC(C)=O)C1C (centres undefined),> 200 µM,4.79 µM,–
N#C/C(=C\c1ccccc1)c1cccc(I)c1,> 200 µM,55 µM,–
Cc1ccc2c(c1)C(=O)/C(=C\c1ccc(Cl)cc1)CCS2(=O)=O,> 200 µM,1.66 µM,–
O=c1nc2cc(-c3ccccc3)[nH]c2nn1-c1c(Cl)cc(Cl)cc1Cl,> 91.2 µM,1.17 µM,–
COc1cc(Br)cc2nc(-c3cccs3)oc12,> 200 µM,141 µM,–
CCC(=O)NC(Nc1ccc(O)cc1)(C(F)(F)F)C(F)(F)F,> 200 µM,46.8 µM,–
